One block for each compound: values may come before it. *1 amine or outer side, *2 acyl side, *3 side chain or, on linkers, in order; H or OH if unused. Where a SMILES comes first, the peptide text is derived from it. Side-chain parts run from the residue outwards. [ ]: non-standard residue; d: D form. The star is where a group is joined. C20 diacid = O=C(O)CCCCCCCCCCCCCCCCCCC(=O)*; C18 diacid = O=C(O)CCCCCCCCCCCCCCCCC(=O)*; C16 diacid = O=C(O)CCCCCCCCCCCCCCC(=O)*; γGlu = O=C(O)[C@H](CCC(=O)[*:2])N[*:1]; AEEA = NCCOCCOCC(=O)O; Aib = CC(C)(N)C(=O)O
Key:
[1] = Pharmacokinetics in male Sprague Dawley rats after subcutaneous administration; assay type: in vivo; settings: plasma, rat
[2] = In vitro subcutaneous tissue supernatant (SCts) stability and metabolite identification, rat; assay type: in vitro ADME; design: remaining at 2 h: dose or concentration left out as unconfirmed; settings: male, Sprague Dawley; rat subcutaneous tissue supernatant (SCts), 37° C, 2 h
Protocol: In vitro metabolic stability in subcutaneous tissue supernatant (SCts) was studied in male Sprague Dawley rats. Test compounds were incubated […] for 2 hours at 37° C.
Software aided in vitro metabolite identification on SCts stability samples was performed using either Metabolite Pilot (Sciex) or Biopharma Finder (Thermo). In addition, metabolite identification using Metabolite Pilot was performed on plasma samples of Comp Y following SC administration to rat at 1 mg/kg.

CFR1R receptor = biological target: T1, CFR1R receptor (Homo sapiens, UniProt P34998); test: Activity at anti-target CFR1R receptor, cAMP assay in CRF1R-overexpression CHO-K1 cells; assay type: cell-based; settings: 100% = Sauvagine at 100 nM
T1 construct: host or cells: CHO-K1 (clone 2)
T1 sequence (P34998 24-415): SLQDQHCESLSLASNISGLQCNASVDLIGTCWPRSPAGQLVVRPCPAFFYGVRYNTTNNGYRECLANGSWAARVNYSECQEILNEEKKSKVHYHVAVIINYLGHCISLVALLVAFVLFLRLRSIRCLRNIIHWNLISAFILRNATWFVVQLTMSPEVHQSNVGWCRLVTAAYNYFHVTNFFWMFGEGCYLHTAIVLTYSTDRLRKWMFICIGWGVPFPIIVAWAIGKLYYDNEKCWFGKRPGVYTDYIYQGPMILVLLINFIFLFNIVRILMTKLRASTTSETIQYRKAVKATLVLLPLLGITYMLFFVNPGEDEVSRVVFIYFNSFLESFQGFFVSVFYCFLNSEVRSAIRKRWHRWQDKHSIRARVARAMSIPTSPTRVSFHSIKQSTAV
Method in brief: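 cAMP readout in CRF1R-overexpressing CHO-K1 cells (clone 2), run as for the TeloHAEC assay at 4000 cells/well final. Cells came from cryopreserved banks. Sauvagine at 100 nM defined 100% activation.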

[3] = Pharmacokinetics in male Sprague Dawley rats after subcutaneous administration; assay type: in vivo; settings: plasma, rat, SC, 0.05 mg/kg
Protocol: The pharmacokinetics of UCN-2 derivatives was studied in male Sprague Dawley rats after subcutaneous administration (SC) at 0.05, 0.1, 0.3 or 1 mg/kg. Peptides were formulated as a solution in 10 mM phosphate pH 7.4 buffer+glycerol 85% (2.3% v/v)). […] The supernatant (200 μL) was analyzed by LC-MSMS. Pharmacokinetic parameters were calculated using established non-compartmental methods. The area under the plasma concentration curve versus time (AUC) was determined using Watson LIMS (version 7.6), with linear trapezoidal interpolation in the ascending slope and logarithmic trapezoidal interpolation in the descending slope. The portion of the AUC from the last measurable concentration to infinity was estimated from the equation, Ct/kel, where Ct represents the last measurable concentration and kel is the elimination rate constant. The latter was determined from the concentration curve versus time by linear regression at the terminal phase of the semi-logarithmic plot.

human CRF2a receptor = biological target: T2, human CRF2a receptor (Homo sapiens, UniProt Q13324); test: Activity at human CRF2a receptor, cAMP functional assay in TeloHEAC cells; assay type: cell-based; settings: TeloHEAC cells stably expressing human CRF2a receptor, relative to urocortin 2 (100 nM = 100%)
T2 construct: expressed in transfected cells; host or cells: TeloHEAC cells
T2 sequence (Q13324 1-411): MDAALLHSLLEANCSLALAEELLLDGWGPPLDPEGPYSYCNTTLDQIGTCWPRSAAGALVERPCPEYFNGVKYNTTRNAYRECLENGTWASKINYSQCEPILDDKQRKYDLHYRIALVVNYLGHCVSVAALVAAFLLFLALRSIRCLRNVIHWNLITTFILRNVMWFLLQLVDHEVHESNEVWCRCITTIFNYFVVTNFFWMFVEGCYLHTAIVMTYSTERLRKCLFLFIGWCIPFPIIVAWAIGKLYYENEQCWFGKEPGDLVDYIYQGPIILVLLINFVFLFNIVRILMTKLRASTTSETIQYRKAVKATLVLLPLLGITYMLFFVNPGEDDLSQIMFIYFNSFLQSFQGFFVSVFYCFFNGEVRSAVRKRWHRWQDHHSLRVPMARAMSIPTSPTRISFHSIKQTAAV
Method in brief: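 TeloHEAC cells stably expressing human CRF2a (10000 cells/well, suspended in HBSS/20 mM HEPES with 2 mM IBMX) were exposed to compounds for 30 min at 37 °C. cAMP was read as the 665/620 nm fluorescence ratio after 1 h at room temperature. EC50 was derived relative to 100 nM urocortin 2, set as 100%.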

[4] = Chemical stability in buffer (pH 7.4 / pH 4.5), % purity loss; assay type: physicochemical; settings: 100 mM phosphate buffer pH 7.4; 40° C. vs 5° C.; 14 or 28 days
Method in brief: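 Compounds dissolved at 10 mg/mL target in 100 mM phosphate (pH 7.4) or 100 mM acetate (pH 4.5) buffer for 1 h at room temperature, then centrifuged. Diluted supernatant stored at 5 °C or 40 °C for 14 or 28 days; % purity loss by LC-UV.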

AUC(0-t) ([1]; IV, 0.1 mg/kg): 2760 ng·h/mL
half-life ([1]; IV, 0.1 mg/kg): 4.3 h
AUC(0-t) ([1]; SC, 1.0 mg/kg): 14500 ng·h/mL
Cmax ([1]; SC, 1.0 mg/kg): 1040 ng/mL
Tmax ([1]; SC, 1.0 mg/kg): 2 h
half-life ([1]; SC, 1.0 mg/kg): 4 h
Structure (SMILES): CC[C@H](C)[C@H](N)C(=O)N[C@H](C(=O)N[C@@H](CC(C)C)C(=O)N[C@@H](CO)C(=O)N[C@@H](CC(C)C)C(=O)N[C@@H](CC(=O)O)C(=O)N[C@H](C(=O)N1CCC[C@H]1C(=O)N[C@H](C(=O)N[C@@H](CCCCN)C(=O)N[C@@H](CC(C)C)C(=O)N[C@@H](CCCCNC(=O)COCCOCCNC(=O)COCCOCCNC(=O)CC[C@H](NC(=O)CCCCCCCCCCCCCCCCC(=O)O)C(=O)O)C(=O)N[C@@H](CCCCN)C(=O)N[C@H](C(=O)N[C@@H](CC(C)C)C(=O)N[C@@H](CC(C)C)C(=O)N[C@@H](CCC(=O)O)C(=O)N[C@@H](CCC(N)=O)C(=O)N[C@@H](CCC(=O)O)C(=O)N[C@@H](CCCCN)C(=O)N[C@@H](CCC(N)=O)C(=O)N[C@@H](CCCCN)C(=O)N[C@@H](CCCCN)C(=O)N[C@@H](CCC(N)=O)C(=O)N[C@@H](CCCNC(=N)N)C(=O)N[C@@H](CCC(=O)O)C(=O)N[C@@H](CCC(N)=O)C(=O)N[C@@H](C)C(=O)N[C@@H](CCC(=O)O)C(=O)N[C@H](C(=O)N[C@@H](CC(N)=O)C(=O)N[C@@H](CCCCN)C(=O)N[C@@H](CCC(N)=O)C(=O)N[C@H](C(=O)N[C@@H](CC(C)C)C(=O)N[C@@H](C)C(=O)N[C@@H](CCC(N)=O)C(=O)N[C@H](C(N)=O)C(C)C)[C@@H](C)CC)[C@@H](C)O)[C@@H](C)CC)[C@@H](C)CC)C(C)C)C(C)C [149 (Comp Y)] (H-IVLSLDVPIKLK([AEEA-AEEA-γGlu-C18 diacid])KILLEQEKQKKQREQAETNKQILAQV-NH2)

remaining at 2 h [2]: 4%
Structure (SMILES): CC[C@H](C)[C@H](N)C(=O)N[C@H](C(=O)N[C@@H](CC(C)C)C(=O)N[C@@H](CO)C(=O)N[C@@H](CC(C)C)C(=O)N[C@@H](CC(=O)O)C(=O)N[C@H](C(=O)N1CCC[C@H]1C(=O)N[C@H](C(=O)N[C@@H](CCCCN)C(=O)N[C@@H](CC(C)C)C(=O)N[C@@H](CCCCNC(=O)COCCOCCNC(=O)COCCOCCNC(=O)CC[C@H](NC(=O)CCCCCCCCCCCCCCCCC(=O)O)C(=O)O)C(=O)N[C@@H](CCCCN)C(=O)N[C@H](C(=O)N[C@@H](CC(C)C)C(=O)N[C@@H](CC(C)C)C(=O)N[C@@H](CCC(=O)O)C(=O)N[C@@H](CCC(N)=O)C(=O)N[C@@H](CCC(=O)O)C(=O)N[C@@H](CCCCN)C(=O)N[C@@H](CCC(N)=O)C(=O)N[C@@H](CCCCN)C(=O)N[C@@H](CCCCN)C(=O)N[C@@H](CCC(N)=O)C(=O)N[C@@H](CCCNC(=N)N)C(=O)N[C@@H](CCC(=O)O)C(=O)N[C@@H](CCC(N)=O)C(=O)N[C@@H](C)C(=O)N[C@@H](CCC(=O)O)C(=O)N[C@H](C(=O)N[C@@H](CC(N)=O)C(=O)N[C@@H](CCCCN)C(=O)N[C@@H](CCC(N)=O)C(=O)N[C@H](C(=O)N[C@@H](CC(C)C)C(=O)N[C@@H](C)C(=O)N[C@@H](CCC(N)=O)C(=O)N[C@H](C(N)=O)C(C)C)[C@@H](C)CC)[C@@H](C)O)[C@@H](C)CC)[C@@H](C)CC)C(C)C)C(C)C [149 (CompY)] (H-IVLSLDVPIKLK([AEEA-AEEA-γGlu-C18 diacid])KILLEQEKQKKQREQAETNKQILAQV-NH2)

remaining at 2 h [2]: 0%
Structure (SMILES): CC[C@H](C)[C@H](N)C(=O)N[C@H](C(=O)N[C@@H](CC(C)C)C(=O)N[C@@H](CO)C(=O)N[C@@H](CC(C)C)C(=O)N[C@@H](CC(=O)O)C(=O)N[C@H](C(=O)N1CCC[C@H]1C(=O)N[C@H](C(=O)N[C@@H](CCCCN)C(=O)N[C@@H](CC(C)C)C(=O)N[C@@H](CCCCNC(=O)CC[C@H](NC(=O)CCCCCCCCCCCCCCC(=O)O)C(=O)O)C(=O)N[C@@H](CCC(N)=O)C(=O)N[C@H](C(=O)N[C@@H](CC(C)C)C(=O)N[C@@H](CC(C)C)C(=O)N[C@@H](CCCCN)C(=O)N[C@@H](CCC(N)=O)C(=O)N[C@@H](CCC(=O)O)C(=O)N[C@@H](CCCNC(=N)N)C(=O)N[C@@H](CCC(N)=O)C(=O)N[C@@H](CCCCN)C(=O)N[C@@H](CCCCN)C(=O)N[C@@H](CCC(N)=O)C(=O)N[C@@H](CCCNC(=N)N)C(=O)N[C@@H](CCC(=O)O)C(=O)N[C@@H](CCC(N)=O)C(=O)N[C@@H](C)C(=O)N[C@@H](CCC(=O)O)C(=O)N[C@@H](CCCCN)C(=O)N[C@@H](CC(N)=O)C(=O)N[C@@H](CCCCN)C(=O)N[C@@H](CCC(N)=O)C(=O)N[C@H](C(=O)N[C@@H](CC(C)C)C(=O)N[C@@H](CCC(=O)O)C(=O)N[C@@H](CCC(N)=O)C(=O)N[C@H](C(N)=O)C(C)C)[C@@H](C)CC)[C@@H](C)CC)[C@@H](C)CC)C(C)C)C(C)C [151 (CompX)] (H-IVLSLDVPIKLK([γGlu-C16 diacid])QILLKQERQKKQREQAEKNKQILEQV-NH2)

Emax (% I) (CFR1R receptor): 41 % I
AUC(0-t) [3]: 4680 ng·h/mL
Cmax [3]: 154 ng/mL
Tmax [3]: 14 h
half-life [3]: 8 h
EC50 (human CRF2a receptor): 0.11 nM
Buffer stability pH 7.4 % purity loss [4]: 0.3/Not Tested %
AUC(0-t) ([1]; IV, 0.025 mg/kg): 4840 ng·h/mL
half-life ([1]; IV, 0.025 mg/kg): 8 h
Structure (SMILES): CC[C@H](C)[C@H](NC(C)=O)C(=O)N[C@H](C(=O)N[C@@H](CC(C)C)C(=O)N[C@@H](CO)C(=O)N[C@@H](CC(C)C)C(=O)N[C@@H](CC(=O)O)C(=O)N[C@@H](C(=O)N1CCC[C@H]1C(=O)N[C@H](C(=O)N[C@@H](CCCCN)C(=O)N[C@@H](CC(C)C)C(=O)N[C@@H](CCCCNC(=O)CC[C@H](NC(=O)CCCCCCCCCCCCCCCCCCC(=O)O)C(=O)O)C(=O)N[C@@H](CCCCN)C(=O)N[C@H](C(=O)N[C@@H](CC(C)C)C(=O)N[C@@H](CC(C)C)C(=O)N[C@@H](CCC(=O)O)C(=O)N[C@@H](CCC(N)=O)C(=O)N[C@@H](CCC(=O)O)C(=O)N[C@@H](CCCCN)C(=O)N[C@@H](CCC(N)=O)C(=O)N[C@@H](CCCCN)C(=O)N[C@@H](C)C(=O)N[C@@H](CCC(N)=O)C(=O)N[C@@H](CCCNC(=N)N)C(=O)N[C@@H](CCC(=O)O)C(=O)N[C@@H](CCC(N)=O)C(=O)N[C@@H](C)C(=O)N[C@@H](CCC(=O)O)C(=O)N[C@H](C(=O)N[C@@H](CC(N)=O)C(=O)NC(C)(C)C(=O)N[C@@H](CCC(N)=O)C(=O)N[C@H](C(=O)N[C@@H](CC(C)C)C(=O)N[C@@H](C)C(=O)N[C@@H](CCC(N)=O)C(=O)N[C@H](C(N)=O)C(C)C)[C@@H](C)CC)[C@@H](C)O)[C@@H](C)CC)[C@@H](C)CC)C(C)C)C(C)C [compound 212] (Ac-IVLSLD[dV]PIKLK([γGlu-C20 diacid])KILLEQEKQKAQREQAETN[Aib]QILAQV-NH2)

Reference: patent US20260001928A1 (CORTERIA PHARMACEUTICALS, priority 2022, published 2026)
